PMC12366525, “Characterization of allosteric modulators that disrupt androgen receptor co-activator protein-protein interactions to alter transactivation–Drug leads for metastatic castration resistant prostate cancer” (SLAS discovery : advancing life sciences R & D, 2023)
pIC50: −log10 of the molar value.

Legend:
Type in all cases: cell-based
[1] = target: T1, AR-V7 (Homo sapiens, UniProt P10275); experiment: PSA6.1 promoter driven luciferase reporter assay in PC3-AR-V7-GFP cells; conditions: constitutive, 24 h; read-out: PC-3-ARV7-GFP PSA6.1-Luc Reporter IC50
T1 construct: expressed in transfected cells; host or cells: PC3 cells stably expressing AR-V7-GFP
T1 sequence (P10275 1-644 isoform P10275-3): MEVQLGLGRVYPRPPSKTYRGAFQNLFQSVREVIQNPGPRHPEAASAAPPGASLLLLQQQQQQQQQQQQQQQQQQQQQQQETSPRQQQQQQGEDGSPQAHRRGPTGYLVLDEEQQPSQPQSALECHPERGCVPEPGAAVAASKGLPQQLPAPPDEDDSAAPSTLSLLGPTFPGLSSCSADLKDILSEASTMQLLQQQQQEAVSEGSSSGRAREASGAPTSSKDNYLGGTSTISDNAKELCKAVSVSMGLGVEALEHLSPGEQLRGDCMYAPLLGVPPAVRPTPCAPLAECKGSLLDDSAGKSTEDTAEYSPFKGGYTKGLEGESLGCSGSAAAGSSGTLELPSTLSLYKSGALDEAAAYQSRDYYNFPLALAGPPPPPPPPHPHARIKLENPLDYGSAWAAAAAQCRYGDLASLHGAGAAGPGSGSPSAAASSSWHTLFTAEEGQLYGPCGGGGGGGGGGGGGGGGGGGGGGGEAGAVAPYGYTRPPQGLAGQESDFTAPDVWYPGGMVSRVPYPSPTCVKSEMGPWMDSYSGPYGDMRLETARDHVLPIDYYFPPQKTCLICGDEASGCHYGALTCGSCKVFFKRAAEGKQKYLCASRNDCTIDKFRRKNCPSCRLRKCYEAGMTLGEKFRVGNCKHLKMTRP
Description: PC3-AR-V7-GFP cells were bulk transfected with a mixture of Fugene HD and the PSA-6.1-Luc reporter plasmid (20 ng/well) combined at a 3:1 (μL:μg) ratio in Opti-MEM (Gibco, Gaithersburg, MD) that had been incubated for 25 min at RT before being added to PC3-AR-V7-GFP cells that were suspended in RPMI 1640 (Gibco) media containing 1% L-glutamine (Invitrogen), and 10% fetal bovine serum (Gemini Bio-products). Bulk transfected PC3-AR-V7-GFP cells were seeded into white opaque 384-well assay plates (Greiner Bio-one, #781080) at 3000 cells per well in a volume of 40 μL and incubated at 5% CO2, 37 °C, and 95% humidity for 24 h. After 24 h, 5 μL of compounds were transferred to assay wells and the plates were returned to the incubator for an additional 24 h before 25 μL of BrightGlo luciferase reagent (Promega) was added to the wells and the RLU’s were captured on a SpectraMax M5e plate reader (Molecular Devices LLC) as described previously.

[2] = target: T2, AR-TIF2 PPI (Homo sapiens, UniProt P10275); experiment: AR-TIF2 PPI biosensor (PPIB) HCS assay, disruption of pre-formed AR-TIF2 PPI complexes; conditions: U-2 OS cells, 25 nM DHT 90 min prior to compounds for 3 h
T2 construct: expressed in transfected cells; host or cells: U-2 OS osteosarcoma cells, co-infected with recombinant adenoviruses
T2 sequence (P10275 663-920 limits assumed): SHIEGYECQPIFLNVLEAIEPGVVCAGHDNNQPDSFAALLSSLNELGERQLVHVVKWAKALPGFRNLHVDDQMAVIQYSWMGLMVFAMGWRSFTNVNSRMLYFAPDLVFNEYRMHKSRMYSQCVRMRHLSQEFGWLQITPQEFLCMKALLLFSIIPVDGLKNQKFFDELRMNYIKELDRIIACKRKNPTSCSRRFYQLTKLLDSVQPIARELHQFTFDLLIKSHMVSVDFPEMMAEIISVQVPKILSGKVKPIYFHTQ
Description: Daughter plates containing 2 μL of the serially diluted compounds in DMSO were prepared and replicated from 384-well serial dilution master plates using a Janus MDT platform outfitted with a 384-well transfer head. Aluminum adhesive plate seals were applied, and plates were stored at −20 °C. For bioassay testing, daughter plates were withdrawn from −20 °C storage, thawed to ambient temperature, and centrifuged for 1 min at 100 × g, and plate seals were removed before 38 μL of serum-free media (SFM) was transferred into wells using a Matrix pipettor (ThermoFisher, Waltham, MA), to generate an intermediate stock concentration of validation compounds ranging from 0.977 to 500 μM (5.0% DMSO). Diluted compounds were mixed by repeated aspiration and dispensation using a 384-well P30 dispensing head on the Janus MDT platform and then, 5 μL of diluted compounds was transferred to assay plate wells to provide a final concentration range from 0.0977 to 50 μM (0.5% DMSO).
(§1) The AR-TIF2 PPIB HCS assay was performed in U-2 OS osteosarcoma cells as described previously. Briefly, U-2 OS cells were coinfected with recombinant adenovirus biosensor expression constructs and seeded at 2500 cells per well in 384-well collagen-coated microplates (Greiner BioOne #781956) and plates were incubated overnight at 37°C in 5% CO2 and 95% humidity. […] After the appropriate time, assay plates were fixed by transfer of 50 μL of pre-warmed (37°C) 7.4% formaldehyde and 2 μg/mL Hoechst 33342 in PBS and incubation at room temperature for 30 min. Liquid was aspirated, plates were washed twice with 85 μL PBS, leaving the final wash in the plate. Plates were sealed with adhesive aluminum plate seals, and fluorescent images of three fields of view were acquired in the DAPI (Hoechst stained nuclei), FITC (TIF2-GFP) and Texas Red (AR-RFP) channels on an ImageXpress Micro (IXM) automated HCS platform (Molecular Devices LLC, Sunnyvale, CA) using a 10X Plan Fluor 0.3 NA objective. Images were analyzed using the Translocation Enhanced (TE) image analysis module of the MetaXpress software as described previously.
In 384-well assays, DMSO minimum (n = 32) and maximum (n = 32) plate control wells were utilized to calculate signal-to-background ratios (S:B) and Z’-factor coefficient assay performance quality control statistics, and to normalize the signals of compound treated wells and to represent 0% and 100% respectively. For the 96-well AR-LBD H^3-DHT radioligand binding assay, eight minimum and maximum plate control wells were utilized to normalize the data. For the PC cell line growth inhibition assays we used the DMSO control data from the T0 and T72 assay plates to assess the dynamic range of the T0 to T72 cell growth, and to calculate S:B ratios and Z’-factor coefficient statistics for the assay signal window (T0 to T72). To normalize the 72 h compound exposure PC growth inhibition data, the signals from the compound treated wells were processed and expressed as% of the T72 DMSO plate controls. IC50 and GI50 values for each of the bioassays were calculated using Graph-Pad Prism 9 software to plot and fit data to curves using the Sigmoidal dose response variable slope equation Y = Bottom + [Top-Bottom]/ [1 + 10^^(LogEC50-X)*HillSlope].

[3] = M2H viability counter screen; conditions: human, HEK 293 cells; cytotoxicity counter screen; read-out: M2H viability CS GI50
[4] = system: U-2 OS cells; experiment: AR-TIF2 PPIB cell loss (Hoechst stained nuclei); conditions: 4.5 h compound exposure
Description: as §1

Row | Compound | pIC50 [1] | pIC50 [2] | GI50 [3] [µM] | AR-TIF2 PPIB Cell Loss [4] [µM] | pIC50 ([2]; listed as S1-3)
1 | Cc1ccccc1-c1cc(O)c2c(c1)CN(c1nc(C(N)=O)cs1)CCO2 [S1–1] | 4.47 | 4.58 | 58.6 | >100 | 
2 | Cc1ccccc1-c1cc(O)c2c(c1)CN(c1nccs1)CCO2 [S1–3] |  | 4.20 |  | >100 | 4.20
3 | Cc1nsc(NC(=O)N2CCC(Sc3ccccc3C)CC2)n1 [S2–6] | 5.10 | 5.24 | > 100 | >100 | 
4 | Cc1c(-c2ccccc2F)[nH]c2ccc(CNC(=O)CCc3cn[nH]c3)cc12 [S3–11] | 4.97 | 4.54 | 69.2 | >100 | 
5 | Cc1c(-c2ccccc2F)[nH]c2ccc(CNC(=O)CCc3cnccn3)cc12 [S3–12] | 5.09 | 4.57 | > 100 | >100 | 
6 | CC(=O)NCCC(=O)NCc1ccc2[nH]c(-c3ccccc3F)c(C)c2c1 [S3–13] | 4.29 | 4.38 | > 100 | >100 | 
7 | Cc1c(-c2ccccc2F)[nH]c2ccc(CNC(=O)c3ccc(CO)o3)cc12 [S3–14] | 4.36 | 4.74 | > 100 | >100 | 
8 | Cc1c(-c2ccc(F)cc2)[nH]c2ccc(CNC(=O)c3ccc(CO)o3)cc12 [S3–15] | 5.00 | 4.58 | > 100 | >100 | 
